In patent publication US12617837B2, “Composition for use in treatment of allergic diseases” (UNIVERSITY OF TSUKUBA, priority 2019, dated 2026):

T1: Clec10a-Fc (Mus musculus, UniProt P49300)
T1 construct: cloning the extracellular region of mouse Clec10a into a pME18S expression vector; made in house; host or cells: HEK293T cells
T1 sequence (P49300 57-304 limits assumed): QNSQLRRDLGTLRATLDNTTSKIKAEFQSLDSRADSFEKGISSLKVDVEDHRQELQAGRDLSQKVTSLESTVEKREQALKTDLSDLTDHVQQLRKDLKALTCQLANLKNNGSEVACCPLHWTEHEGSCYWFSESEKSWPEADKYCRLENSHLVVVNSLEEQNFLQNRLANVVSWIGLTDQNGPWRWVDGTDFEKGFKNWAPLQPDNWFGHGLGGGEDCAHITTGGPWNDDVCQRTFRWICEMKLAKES

B1: AAL (protein, UniProt P18891 2-313, looked up)
Fucose-specific lectin: PTEFLYTSKIAAISWAATGGRQQRVYFQDLNGKIREAQRGGDNPWTGGSSQNVIGEAKLFSPLAAVTWKSAQGIQIRVYCVNKDNILSEFVYDGSKWITGQLGSVGVKVGSNSKLAALQWGGSESAPPNIRVYYQKSNGSGSSIHEYVWSGKWTAGASFGSTVPGTGIGATAIGPGRLRIYYQATDNKIREHCWDSNSWYVGGFSASASAGVSIAAISWGSTPNIRVYWQKGREELYEAAYGGSWNTPGQIKDASRPTPSLPDTFIAANSSGNIDISVFFQASGVSLQQWQWISGKGWSIGAVVPTGTPAGW
B2: PNA (protein, UniProt P02872 24-273, looked up)
Galactose-binding lectin: AETVSFNFNSFSEGNPAINFQGDVTVLSNGNIQLTNLNKVNSVGRVLYAMPVRIWSSATGNVASFLTSFSFEMKDIKDYDPADGIIFFIAPEDTQIPAGSIGGGTLGVSDTKGAGHFVGVEFDTYSNSEYNDPPTDHVGIDVNSVDSVKTVPWNSVSGAVVKVTVIYDSSTKTLSVAVTNDNGDITTIAQVVDLKAKLPERVKFGFSASGSLGGRQIHLIRSWSFTSTLITTTRRSIDNNEKKIMNMASA

Legend:
Format in all cases: binding
Clec10a-Fc = target: T1, Clec10a-Fc; assay: Sugar conjugate (glycan) microarray analysis of Clec10a-Fc (Table 7); conditions: for Signal value, Clec10a-Fc: glycan microarray probed with Clec10a-Fc; for Signal value, Clec10a-Fc with EDTA: glycan microarray probed with Clec10a-Fc with EDTA
Experimental: A sugar conjugate microarray containing 98 sugar conjugates (Table 3) was prepared according to a known method using a non-contact microarray printing robot (MicroSys 4000; Genomic Solutions).

human IgG1 = assay: Glycan microarray probed with human IgG1 (control of Table 7)
[1] = system: lectins (96 lectins of Table 2); assay: Lectin microarray analysis of Clec10a ligand in HDM (Table 6); conditions: for Signal value, Target: Target: Pull-down assay sample from HDM using Clec10a-Fc (Clec10a ligand), signal at each lectin spot of the lectin microarray
Experimental: Lectin microarrays were made using a non-contact microarray printing robot (MicroSys4000; Genomic Solutions) according to the previous method. Samples were fluorescently labeled with Cy3 Mono-Reactive dye (Ge) and excess Cy3 was removed using a Sephadex g-25 desalting column (Ge). After 10 fold dilution with a probe solution (25 mM Tris-HCl, pH 7.5, 140 mM NaCl) (TBS) containing 2.7 mM KCl, 1 mM CaCl2, 1 mM MnCl2, and 1% Triton X-100, a Cy3-labeled sample was applied to a lectin microarray and incubated at 20° C. overnight. The sample was washed with a probe solution, and a fluorescence image was obtained using an evanescent-field activated fluorescence scanner (Bio-Rad scan 200, Rexxam Co. Ltd.). Lectin signals in triplicate spots were averaged for each protein sample and normalized to an average value of 96 lectins.

Molecule | Signal value, Clec10a-Fc (Clec10a-Fc) | Signal value, Clec10a-Fc with EDTA (Clec10a-Fc) | Signal value, human IgG1 (human IgG1) | Binding to lectins in lectin microarray ([1]; Cy3-labeled sample) | Signal value, Target [1] | Binding of Clec10a-Fc in glycan microarray (Clec10a-Fc; Clec10a-Fc 10 μg/mL)
O=C(CO)N[C@H]1[C@H]([C@H](O)[C@H](O)CO)O[C@@](O)(C(=O)O)C[C@@H]1O [Ne̊u5Gc] | 0 | 0 | 0 |  |  | 
CC(=O)N[C@H]1[C@H]([C@H](O)[C@H](O)CO)O[C@@](O[C@H](CO)[C@@H](O)[C@@H]2O[C@@](O[C@H](CO)[C@@H](O)[C@@H]3O[C@@](O)(C(=O)O)C[C@H](O)[C@H]3NC(C)=O)(C(=O)O)C[C@H](O)[C@H]2NC(C)=O)(C(=O)O)C[C@@H]1O [Sia3] | 19 | 3 | 0 |  |  | 
CC(=O)N[C@@H]1[C@@H](O[C@@H]2O[C@H](CO)[C@H](O)[C@H](O)[C@H]2O)[C@@H](O)[C@@H](CO[C@]2(C(=O)O)C[C@H](O)[C@@H](NC(C)=O)[C@H]([C@H](O)[C@H](O)CO)O2)O[C@@H]1O [Siaα2-6Core 1] | 0 | 0 | 0 |  |  | 
CC(=O)N[C@H]1[C@H]([C@H](O)[C@H](O)CO)O[C@@](O[C@H](CO)[C@@H](O)[C@@H]2O[C@@](O)(C(=O)O)C[C@H](O)[C@H]2NC(C)=O)(C(=O)O)C[C@@H]1O [Siα2] | 0 | 0 | 0 |  |  | 
CC(=O)N[C@@H]1[C@@H](O[C@@H]2O[C@H](CO)[C@H](O)[C@H](O)[C@H]2O)[C@@H](O)[C@@H](CO)O[C@@H]1O [T (Core1)] | 2504 | 0 | 0 |  |  | 
O=S(=O)(O)O[C@@H]1[C@@H](O)[C@H](O)O[C@H](CO)[C@@H]1O [[3S] βGal] | 3 | 0 | 0 |  |  | 
CC(=O)N[C@@H]1[C@@H](O[C@@H]2O[C@H](CO)[C@H](O)[C@H](OS(=O)(=O)O)[C@H]2O)[C@H](O[C@@H]2O[C@@H](C)[C@@H](O)[C@@H](O)[C@@H]2O)[C@@H](CO)O[C@H]1O [[3S]Lea] | 0 | 0 | 0 |  |  | 
CC(=O)N[C@@H]1[C@@H](O)[C@H](O[C@@H]2O[C@H](CO)[C@H](O)[C@H](O[C@]3(C(=O)O)C[C@H](O)[C@@H](NC(C)=O)[C@H]([C@H](O)[C@H](O)CO)O3)[C@H]2O)[C@@H](CO)O[C@H]1O [[3′S]LN] | 0 | 0 | 0 |  |  | 
CC(=O)N[C@@H]1[C@@H](O[C@@H]2O[C@H](CO)[C@H](O)[C@H](OS(=O)(=O)O)[C@H]2O)[C@H](O)[C@@H](CO)O[C@H]1O [[3′S]Lec] | 0 | 0 | 0 |  |  | 
O=P(O)(O)OC[C@H]1O[C@H](O)[C@@H](O)[C@@H](O)[C@@H]1O [[6P]Man] | 0 | 0 | 0 |  |  | 
CC(=O)N[C@@H]1[C@@H](O)[C@H](O)[C@@H](COS(=O)(=O)O)O[C@H]1O [[6S]BGlcNAc] | 0 | 0 | 318 |  |  | 
CC(=O)N[C@@H]1[C@@H](O)[C@H](O[C@@H]2O[C@H](CO)[C@H](O)[C@H](O)[C@H]2O)[C@@H](COS(=O)(=O)O)O[C@H]1O [[6S]LN] | 0 | 0 | 0 |  |  | 
CC(=O)N[C@@H]1[C@@H](O)[C@H](O[C@@H]2O[C@H](COS(=O)(=O)O)[C@H](O)[C@H](O)[C@H]2O)[C@@H](CO)O[C@H]1O [[6′S]LN] | 0 | 0 | 0 |  |  | 
CC(=O)N[C@@H]1[C@@H](O[C@@H]2O[C@H](CO)[C@H](O)[C@H](O)[C@H]2NC(C)=O)[C@@H](O)[C@@H](CO)O[C@H]1O [di-GalNAcβ] | 65 | 0 | 0 |  |  | 
CC(=O)N[C@@H]1[C@@H](O[C@@H]2O[C@H](CO)[C@H](O)[C@H](O[C@]3(C(=O)O)C[C@H](O)[C@@H](NC(C)=O)[C@H]([C@H](O)[C@H](O)CO)O3)[C@H]2O)[C@H](O[C@@H]2O[C@@H](C)[C@@H](O)[C@@H](O)[C@@H]2O)[C@@H](CO)O[C@H]1O [sLea] | 0 | 0 | 0 |  |  | 
CC(=O)N[C@@H]1[C@@H](O[C@@H]2O[C@@H](C)[C@@H](O)[C@@H](O)[C@@H]2O)[C@H](O[C@@H]2O[C@H](CO)[C@H](O)[C@H](O[C@]3(C(=O)O)C[C@H](O)[C@@H](NC(C)=O)[C@H]([C@H](O)[C@H](O)CO)O3)[C@H]2O)[C@@H](CO)O[C@H]1O [sLex] | 1 | 0 | 0 |  |  | 
OC[C@H]1O[C@H](O)[C@@H](O)[C@@H](O)[C@@H]1O [αMan] | 0 | 0 | 0 |  |  | 
CC(=O)N[C@@H]1[C@@H](O)[C@@H](O)[C@@H](CO)O[C@H]1O [βGalNAc] | 6 | 0 | 0 |  |  | 
OC[C@H]1O[C@@H](O)[C@H](O)[C@@H](O)[C@H]1O [βGal] | 1867 | 0 | 0 |  |  | 
OC[C@H]1O[C@@H](O)[C@@H](O)[C@@H](O)[C@@H]1O [βMan] | 0 | 0 | 0 |  |  | 
Chitobiose | 0 | 0 | 0 |  |  | 
Clec10a |  |  |  | most strongly bound to the lectins of Maclura pomifera (MPA) |  | 
PHAL | 0 | 0 | 0 |  | 0 | 
rGal7 | 0 | 0 | 0 |  | 0 | 
rMalectin | 0 | 0 | 0 |  | 0 | 
αGalNAc [Tn antigen] | 682 | 0 | 0 |  |  | binds
B1 |  |  |  |  | 7508 | 
B2 |  |  |  |  | 10699 | 
